Laboratory results reported in ChEMBL document CHEMBL1671626, “In vitro profiling of ceftaroline against a collection of recent bacterial clinical isolates from across the United States” (2008).
Converted amounts (≈) assume the structure as drawn.

Tests used:
Type in all cases: functional
[1] = tested on: Staphylococcus aureus; assay: Antibacterial activity against coagulase-negative and oxacillin-resistant Staphylococcus aureus assessed as susceptible isolates by CLSI M7-A7 broth microdilution method
[2] = tested on: Klebsiella pneumoniae; assay: Antibacterial activity against ceftazidime-susceptible Klebsiella pneumoniae by CLSI M7-A7 broth microdilution method
[3] = tested on: Staphylococcus aureus; assay: Antibacterial activity against coagulase-negative and oxacillin-susceptible Staphylococcus aureus by CLSI M7-A7 broth microdilution method
[4] = tested on: Enterobacteriaceae; assay: Antibacterial activity against ceftazidime-susceptible Enterobacteriaceae assessed as susceptible isolates by CLSI M7-A7 broth microdilution method
[5] = tested on: Proteus mirabilis; assay: Antibacterial activity against ceftazidime-susceptible Proteus mirabilis assessed as susceptible isolates by CLSI M7-A7 broth microdilution method
[6] = tested on: Escherichia coli; assay: Antibacterial activity against ceftazidime-nonsusceptible Escherichia coli assessed as susceptible isolates by CLSI M7-A7 broth microdilution method
[7] = tested on: Staphylococcus aureus; assay: Antibacterial activity against methicillin-susceptible Staphylococcus aureus assessed as resistant isolates by CLSI M7-A7 broth microdilution method
[8] = tested on: Staphylococcus aureus; assay: Antibacterial activity against coagulase-negative and oxacillin-susceptible Staphylococcus aureus assessed as susceptible isolates by CLSI M7-A7 broth microdilution method
[9] = tested on: Haemophilus influenzae; assay: Antibacterial activity against beta lactamase-negative Haemophilus influenzae assessed as susceptible isolates by CLSI M7-A7 broth microdilution method
[10] = tested on: Staphylococcus aureus; assay: Antibacterial activity against coagulase-negative and oxacillin-susceptible Staphylococcus aureus assessed as resistant isolates by CLSI M7-A7 broth microdilution method
[11] = tested on: Acinetobacter; assay: Antibacterial activity against imipenem-susceptible Acinetobacter by CLSI M7-A7 broth microdilution method
[12] = tested on: Enterococcus faecalis; assay: Antibacterial activity against vancomycin-susceptible Enterococcus faecalis by CLSI M7-A7 broth microdilution method
[13] = tested on: Enterobacteriaceae; assay: Antibacterial activity against ceftazidime-nonsusceptible Enterobacteriaceae assessed as resistant isolates by CLSI M7-A7 broth microdilution method
[14] = tested on: Staphylococcus aureus; assay: Antibacterial activity against methicillin-susceptible Staphylococcus aureus assessed as susceptible isolates by CLSI M7-A7 broth microdilution method
[15] = tested on: Serratia marcescens; assay: Antibacterial activity against ceftazidime-susceptible Serratia marcescens by CLSI M7-A7 broth microdilution method
[16] = tested on: Streptococcus viridans; assay: Antibacterial activity against penicillin-susceptible Streptococcus viridans by CLSI M7-A7 broth microdilution method
[17] = tested on: Morganella morganii; assay: Antibacterial activity against ceftazidime-susceptible Morganella morganii assessed as resistant isolates by CLSI M7-A7 broth microdilution method
[18] = tested on: Moraxella catarrhalis; assay: Antibacterial activity against beta lactamase-positive Moraxella catarrhalis by CLSI M7-A7 broth microdilution method
[19] = tested on: Escherichia coli; assay: Antibacterial activity against ceftazidime-susceptible Escherichia coli by CLSI M7-A7 broth microdilution method
[20] = tested on: Acinetobacter; assay: Antibacterial activity against imipenem-susceptible Acinetobacter assessed as resistant isolates by CLSI M7-A7 broth microdilution method
[21] = tested on: Streptococcus pneumoniae; assay: Antibacterial activity against penicillin-resistant Streptococcus pneumoniae assessed as susceptible isolates by CLSI M7-A7 broth microdilution method
[22] = tested on: Acinetobacter; assay: Antibacterial activity against multidrug-resistant Acinetobacter assessed as susceptible isolates by CLSI M7-A7 broth microdilution method
[23] = tested on: Acinetobacter; assay: Antibacterial activity against imipenem-susceptible Acinetobacter assessed as susceptible isolates by CLSI M7-A7 broth microdilution method
[24] = tested on: Streptococcus pyogenes; assay: Antibacterial activity against erythromycin-susceptible Streptococcus pyogenes by CLSI M7-A7 broth microdilution method
[25] = tested on: Staphylococcus aureus; assay: Antibacterial activity against coagulase-negative and oxacillin-resistant Staphylococcus aureus assessed as resistant isolates by CLSI M7-A7 broth microdilution method
[26] = tested on: Streptococcus pneumoniae; assay: Antibacterial activity against penicillin-susceptible Streptococcus pneumoniae by CLSI M7-A7 broth microdilution method
[27] = tested on: Streptococcus agalactiae; assay: Antibacterial activity against erythromycin-susceptible Streptococcus agalactiae by CLSI M7-A7 broth microdilution method
[28] = tested on: Klebsiella pneumoniae; assay: Antibacterial activity against ceftazidime-nonsusceptible Klebsiella pneumoniae assessed as susceptible isolates by CLSI M7-A7 broth microdilution method
[29] = tested on: Enterobacter cloacae; assay: Antibacterial activity against ceftazidime-susceptible Enterobacter cloacae by CLSI M7-A7 broth microdilution method
[30] = tested on: Enterobacter cloacae; assay: Antibacterial activity against ceftazidime-susceptible Enterobacter cloacae assessed as susceptible isolates by CLSI M7-A7 broth microdilution method
[31] = tested on: Staphylococcus aureus; assay: Antibacterial activity against coagulase-negative and oxacillin-resistant Staphylococcus aureus by CLSI M7-A7 broth microdilution method
[32] = tested on: Providencia sp.; assay: Antibacterial activity against ceftazidime-susceptible Providencia sp. by CLSI M7-A7 broth microdilution method
[33] = tested on: Staphylococcus aureus; assay: Antibacterial activity against methicillin-resistant Staphylococcus aureus assessed as resistant isolates by CLSI M7-A7 broth microdilution method
[34] = tested on: Citrobacter freundii; assay: Antibacterial activity against ceftazidime-nonsusceptible Citrobacter freundii by CLSI M7-A7 broth microdilution method
[35] = tested on: Escherichia coli; assay: Antibacterial activity against ceftazidime-susceptible Escherichia coli assessed as resistant isolates by CLSI M7-A7 broth microdilution method
[36] = tested on: Klebsiella pneumoniae; assay: Antibacterial activity against ceftazidime-susceptible Klebsiella pneumoniae assessed as resistant isolates by CLSI M7-A7 broth microdilution method
[37] = tested on: Klebsiella pneumoniae; assay: Antibacterial activity against ceftazidime-susceptible Klebsiella pneumoniae assessed as susceptible isolates by CLSI M7-A7 broth microdilution method

C[C@@H](O)[C@H]1C(=O)N2C(C(=O)O)=C(SCCNC=N)C[C@H]12 [IMIPENEM ANHYDROUS]
Activity [1]: 77.3% | MIC [2]: 0.12 µg/mL (≈ 0.401 µM) | MIC50 [2]: 0.12 µg/mL (≈ 0.401 µM) | MIC90 [2]: 0.5 µg/mL (≈ 1.67 µM) | MIC [3]: ≤ 0.12 µg/mL | MIC50 [3]: ≤ 0.12 µg/mL | MIC90 [3]: ≤ 0.12 µg/mL | Activity [4]: 100% | Activity [5]: 100% | Activity [6]: 96.8% | Activity [7]: 0.3% | Activity [8]: 100% | Activity [9]: 100% | Activity [10]: 0% | MIC50 [11]: 0.25 µg/mL (≈ 0.835 µM) | MIC90 [11]: 0.5 µg/mL (≈ 1.67 µM) | MIC50 [12]: 1 µg/mL (≈ 3.34 µM) | MIC90 [12]: 2 µg/mL (≈ 6.68 µM) | Activity [13]: 4.5% | Activity [14]: 99.7% | MIC50 [15]: 0.5 µg/mL (≈ 1.67 µM) | MIC90 [15]: 1 µg/mL (≈ 3.34 µM) | MIC [16]: ≤ 0.015 µg/mL | MIC50 [16]: ≤ 0.015 µg/mL | MIC90 [16]: 0.06 µg/mL (≈ 0.2 µM) | Activity [17]: 0% | MIC [18]: ≤ 0.12 µg/mL | MIC50 [18]: ≤ 0.12 µg/mL | MIC90 [18]: ≤ 0.12 µg/mL | MIC50 [19]: 0.12 µg/mL (≈ 0.401 µM) | MIC90 [19]: 0.25 µg/mL (≈ 0.835 µM) | Activity [20]: 0% | Activity [21]: 12.5% | Activity [22]: 68.8% | Activity [23]: 100% | MIC [24]: ≤ 0.015 µg/mL | MIC50 [24]: ≤ 0.015 µg/mL | MIC90 [24]: ≤ 0.015 µg/mL | Activity [25]: 16.4% | MIC [26]: ≤ 0.015 µg/mL | MIC50 [26]: ≤ 0.015 µg/mL | MIC90 [26]: ≤ 0.015 µg/mL | MIC [27]: ≤ 0.015 µg/mL | MIC50 [27]: ≤ 0.015 µg/mL | MIC90 [27]: 0.03 µg/mL (≈ 0.1 µM) | Activity [28]: 80.3% | MIC50 [29]: 0.5 µg/mL (≈ 1.67 µM) | MIC90 [29]: 0.5 µg/mL (≈ 1.67 µM) | Activity [30]: 100% | MIC50 [31]: 0.5 µg/mL (≈ 1.67 µM) | MIC90 [31]: 16 µg/mL (≈ 53.4 µM) | MIC50 [32]: 1 µg/mL (≈ 3.34 µM) | MIC90 [32]: 2 µg/mL (≈ 6.68 µM) | Activity [33]: 13.5% | MIC50 [34]: 0.5 µg/mL (≈ 1.67 µM) | MIC90 [34]: 1 µg/mL (≈ 3.34 µM) | Activity [35]: 0% | Activity [36]: 0% | Activity [37]: 100%

CC(C)(O/N=C(\C(=O)N[C@@H]1C(=O)N2C(C(=O)[O-])=C(C[n+]3ccccc3)CS[C@H]12)c1csc(N)n1)C(=O)O [CEFTAZIDIME]
Activity [1]: 10% | MIC50 [2]: 0.12 µg/mL (≈ 0.22 µM) | MIC90 [2]: 0.25 µg/mL (≈ 0.457 µM) | MIC50 [3]: 4 µg/mL (≈ 7.32 µM) | MIC90 [3]: 8 µg/mL (≈ 14.6 µM) | Activity [4]: 100% | Activity [5]: 100% | Activity [6]: 0% | Activity [7]: 1.7% | Activity [8]: 93.5% | Activity [9]: 98.5% | Activity [10]: 0.5% | MIC50 [11]: 4 µg/mL (≈ 7.32 µM) | MIC90 [11]: > 32 µg/mL | MIC [12]: > 32 µg/mL | MIC50 [12]: > 32 µg/mL | MIC90 [12]: > 32 µg/mL | Activity [13]: 90% | Activity [14]: 92% | MIC50 [15]: 0.12 µg/mL (≈ 0.22 µM) | MIC90 [15]: 1 µg/mL (≈ 1.83 µM) | MIC [16]: ≤ 1 µg/mL | MIC50 [16]: ≤ 1 µg/mL | MIC90 [16]: 4 µg/mL (≈ 7.32 µM) | Activity [17]: 0% | MIC [18]: ≤ 1 µg/mL | MIC50 [18]: ≤ 1 µg/mL | MIC90 [18]: ≤ 1 µg/mL | MIC50 [19]: 0.12 µg/mL (≈ 0.22 µM) | MIC90 [19]: 0.25 µg/mL (≈ 0.457 µM) | Activity [20]: 31.9% | Activity [22]: 0% | Activity [23]: 63.8% | MIC [24]: ≤ 1 µg/mL | MIC50 [24]: ≤ 1 µg/mL | MIC90 [24]: ≤ 1 µg/mL | Activity [25]: 66.2% | MIC [26]: ≤ 1 µg/mL | MIC50 [26]: ≤ 1 µg/mL | MIC90 [26]: ≤ 1 µg/mL | MIC [27]: ≤ 1 µg/mL | MIC50 [27]: ≤ 1 µg/mL | MIC90 [27]: ≤ 1 µg/mL | Activity [28]: 0% | MIC50 [29]: 0.25 µg/mL (≈ 0.457 µM) | MIC90 [29]: 1 µg/mL (≈ 1.83 µM) | Activity [30]: 100% | MIC50 [31]: 32 µg/mL (≈ 58.5 µM) | MIC90 [31]: > 32 µg/mL | MIC50 [32]: 0.25 µg/mL (≈ 0.457 µM) | MIC90 [32]: 4 µg/mL (≈ 7.32 µM) | Activity [33]: 54% | MIC50 [34]: > 32 µg/mL | MIC90 [34]: > 32 µg/mL | Activity [35]: 0% | Activity [36]: 0% | Activity [37]: 100%
